The results in this text go back to US20220143095A1, “NOVEL ANUCLEATED CELLS AND USES THEREOF” (Platelet Biogenesis, Inc., priority 2020, published 2022).

In one data set the test system is liver fibrosis. Put plainly: Carbon tetrachloride liver fibrosis mouse model (hydroxyproline analysis). The format is in vivo. The note with it: D30, versus carbon tetrachloride mice without intervention. As to the method:
In order to determine if PLCs have a beneficial effect in treating liver fibrosis, fibrosis was initiated with 3× weekly application of 0.1 mL/kg injection of carbon tetrachloride diluted in corn oil for 2 weeks; control mice received corn oil itself for those 2 weeks. Carbon tetrachloride applications continued throughout the next step. Mice that received carbon tetrachloride were separated into 3 cohorts at the two-week mark: • 1. Plasmalyte application on D15, 22, 29 (Carbon Tet mice) • 2. rHGF diluted to 30 ug/mL in plasmalyte and dosed daily at 0.3 mg/kg (Peprotech HGF 100-39H-1 mg) • 3. PLC applications of ˜3e10 Platelet Equivalency Units (PEUs)/kg per mouse on D15, 22, 29. D15 was 5e10, D22 was 3e10, D29 was 5e10.
All mice were sacrificed on D30, livers were excised, and fresh frozen for ˜2-3 hours. Hydroxyproline analysis was done using a hydroxyproline kit (Abcam #ab222941).
Briefly, livers were trimmed, weighed, and the homogenized in DI water at ˜10 uL water/mg of liver with a Dounce homogenizer. The equivalent of 10 mg (˜100 uL) were removed and digested in equal volume 10N NaOH for 2 hours at 120° C. Samples were cooled and quenched with 100 uL 10N HCl, vortexed, and then spun in a centrifuge for 5 mins at 10,000×g. […] Samples were then processed as the manufacturer directed and analyzed with a plate reader. […]

Data set [1] in a line: In vivo localization of PLCs/HGF-ePLCs in fibrotic mice. On the set-up: species or system Immune-deficient mice (NSG). The following applies: 30 mins after treatment. As to the method:
Immune-deficient mice (NSG) were dosed with 0.25 mL/kg of carbon tetrachloride 3 times per week for 2 weeks to initiate liver fibrosis. Control mice were treated with similar volumes of corn oil. On D15, fibrotic mice were treated with the following: Plasmalyte, recombinant HGF (Peprotech Cat #100-39H-1 mg), PLCs that had been generated the previous day and diluted in plasmalyte, or HGF-ePLCs that had been generated the previous day and diluted in plasmalyte. Treatments were allowed to circulate for 30 mins and then mice were sacrificed, exsanguinated, and livers were prepared and frozen for analysis.
FIG. 32B examines circulating PLCs in blood. Blood from PLC or ePLC treatment mice was analyzed via flow cytometry with a human-specific CD61 antibody (Miltenyi Cat #130-110-754) as an indicator of circulating PLCs/ePLCs. […] In FIG. 32C, fluorescence staining of livers removed from treated fibrotic mice for HGF were performed. Livers were embedded in OCT, sectioned, and mounted on slides. Sections were then fixed in ice-cold Acetone for 10 mins and dried for an additional 20 mins. […] The results shown in FIG. 32D show fluorescence staining of livers removed from treated fibrotic mice for CD61. […]

With “HGF: recombinant HGF (Peprotech HGF 100-39H-1 mg)”, in the data set on liver fibrosis, the “collagen per weight of liver” value is “apparent reduction of collagen per weight of liver”. Besides, in data set [1], the “HGF signal in liver (fluorescence staining)” value is on record as “increase HGF signal”.
